From patent US20210221866A1, “PROTEASE-RESISTANT LIPIDATED GLP-1 ANALOGS” (MEDIMMUNE LIMITED, priority 2015, published 2021)
Where two headings read alike, the source gives them in different places. Numbered stars: 1 amine (or outer) side, 2 acyl side, 3 side chain; on linkers, the order of the positions; unused ones are H or OH. Square brackets hold non-standard residues; d marks the D form. Side chains are listed from the residue outwards. Peptide text beside a SMILES is read from it. * marks the point of attachment. γGlu = O=C(O)[C@H](CCC(=O)[*:2])N[*:1]; αMeF = C[C@](N)(Cc1ccccc1)C(=O)O; αMeK = C[C@](N)(CCCCN)C(=O)O; Lauroyl = CCCCCCCCCCCC(=O)*; αMeS = C[C@](N)(CO)C(=O)O; AEEA = NCCOCCOCC(=O)O; Aib = CC(C)(N)C(=O)O

How the values were obtained:
in vitro = details: isolated enzyme chymotrypsin, pH 7.8
Experimental: (§3) Ratio enzyme (units):peptide (μmoles) ˜1:33. […] Ratio enzyme (units):peptide (μmoles) ˜1:2.5.
(§4) 15 μL aliquots (˜15 μg initial peptide) of the peptide-enzyme mixture are periodically withdrawn (t=0, 30 mins, 1 hr, 2 hr, 4 hr, 8 hr, 24 hr) and quenched immediately by addition to an equal volume (15 μL) of 5% TFA (v/v) in 1:1 water/acetonitrile to arrest proteolytic activity. 20 μL aliquots (˜10 μg initial peptide) are analysed by LC/MS and/or analytical RP-HPLC as follows: LC/MS method: Agilent Polaris C8-A column (4.6×100 mm, 3 micron) elutes with a linear binary gradient of 10-90% MeCN (0.1% TFA v/v) in water (0.1% TFA v/v) over 30 mins at 1.5 mL min^−1 at ambient temperature with detection by both UV absorption at 210 nm and ionization using a Waters 3100 mass detector (ESI^+ mode). Peptide fragments deriving from enzymatic hydrolysis are identified by molecular weight, allowing location of the site of cleavage. Analytical RP-HPLC method: Agilent Polaris C8-A column (4.6×100 mm, 3 micron) elutes with a linear binary gradient of 10-90% MeCN (0.1% TFA v/v) in water (0.1% TFA v/v) over either 10 or 15 mins at 1.5 mL min^−1 at 40° C. with detection by UV absorption at 210 nm. Manual integration (AUC) allows estimation of remaining intact peptide over the time course of the experiment.
(§5) 25 μL aliquots (˜6 μg initial peptide) are analysed by LC/MS and/or analytical RP-HPLC as follows: LC/MS method: Agilent Polaris C8-A column (4.6×100 mm, 3 micron) elutes with a linear binary gradient of 10-90% MeCN (0.1% TFA v/v) in water (0.1% TFA v/v) over 30 mins at 1.5 mL min^−1 at ambient temperature with detection by both UV absorption at 210 nm and ionization using a Waters 3100 mass detector (ESI±mode). Peptide fragments deriving from enzymatic hydrolysis are identified by molecular weight, allowing location of the site of cleavage. Analytical RP-HPLC method: Agilent Polaris C8-A column (4.6×100 mm, 3 micron) elutes with a linear binary gradient of 10-90% MeCN (0.1% TFA v/v) in water (0.1% TFA v/v) over either 10 or 15 mins at 1.5 mL min^−1 at 40° C. with detection by UV absorption at 210 nm. Manual integration (AUC) allows estimation of remaining intact peptide over the time course of the experiment.

[1] = target: T1, human glucagon receptor (GCGR) (Homo sapiens, UniProt P47871); test: cAMP assay, human GCGR cells; assay type: cell-based; details: Table 9, bis-lipidated peptides
T1 construct: expressed in transfected cells; host or cells: HEK293 cells or CHO cells
Outline: (§1)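 Peptide-stimulated cAMP measured by two-step HTRF after a 30 min room-temperature incubation with receptor-expressing cells (hGLP-1R, hGIPR at 1×10^5 cells/ml; hGCGR at 2×10^5 cells/ml). Duplicate dilutions; EC50 from 4-parameter logistic fit of % Delta F.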

recombinant Neprilysin = target: T2, recombinant Neprilysin (Homo sapiens, UniProt P08473); test: Proteolytic resistance to neprilysin (% remaining peptide, RP-HPLC AUC); assay type: in vitro ADME; details: t = 0 (baseline); 37° C., pH 8.3; enzyme:peptide ~1:33 for non-lipidated, ~1:2.5 for lipidated peptides
T2 construct: purchased R&D Systems 1182-ZNC-010
Experimental: Ratio enzyme (units):peptide (moles) ˜1:33. […] Ratio enzyme (units):peptide (moles) ˜1:2.5.
15 μL aliquots (˜15 ng initial peptide) of the peptide-enzyme mixture were periodically withdrawn (t=0, 30 mins, 1 hr, 2 hr, 4 hr, 8 hr, 24 hr) and quenched immediately by addition to an equal volume (15 μL) of 5% TFA (v/v) in 1:1 water/acetonitrile to arrest proteolytic activity. 20 μL aliquots (˜10 ng initial peptide) were analyzed by LC/MS and/or analytical RP-HPLC as follows: LC/MS method: Agilent Polaris C8-A column (4.6×100 mm, 3 micron) eluted with a linear binary gradient of 10-90% MeCN (0.1% TFA v/v) in water (0.1% TFA v/v) over 30 mins at 1.5 mL min-1 at ambient temperature with detection by both UV absorption at 210 nm and ionization using a Waters 3100 mass detector (ESI+ mode). Peptide fragments deriving from enzymatic hydrolysis were identified by molecular weight, allowing location of the site of cleavage. Analytical RP-HPLC method: Agilent Polaris C8-A column (4.6×100 mm, 3 micron) eluted with a linear binary gradient of 10-90% MeCN (0.1% TFA v/v) in water (0.1% TFA v/v) over either 10 or 15 mins at 1.5 mL min^−1 at 40° C. with detection by UV absorption at 210 nm. Manual integration (AUC) allowed estimation of remaining intact peptide over the time course of the experiment.
25 μL aliquots (˜6 μg initial peptide) were analyzed by LC/MS and/or analytical RP-HPLC as follows: LC/MS method: Agilent Polaris C8-A column (4.6×100 mm, 3 micron) eluted with a linear binary gradient of 10-90% MeCN (0.1% TFA v/v) in water (0.1% TFA v/v) over 30 mins at 1.5 mL min^−1 at ambient temperature with detection by both UV absorption at 210 nm and ionization using a Waters 3100 mass detector (ESI^+ mode). Peptide fragments deriving from enzymatic hydrolysis were identified by molecular weight, allowing location of the site of cleavage. Analytical RP-HPLC method: Agilent Polaris C8-A column (4.6×100 mm, 3 micron) eluted with a linear binary gradient of 10-90% MeCN (0.1% TFA v/v) in water (0.1% TFA v/v) over either 10 or 15 mins at 1.5 mL min^−1 at 40° C. with detection by UV absorption at 210 nm. Manual integration (AUC) allowed estimation of remaining intact peptide over the time course of the experiment.

[2] = target: porcine pancreatic trypsin (Sus scrofa, UniProt P00761); test: Proteolytic resistance to trypsin (% remaining intact peptide, RP-HPLC AUC); assay type: in vitro ADME; details: t = 0; 37° C., pH 7.8
Experimental: Trypsin: Lyophilized porcine pancreatic trypsin (Sigma: T1426) was reconstituted to afford a solution of 100 μg/mL (˜300 units/mL) in assay buffer (50 mM Tris, 10 mM CaCl2), 150 mM NaCl, 1 mM HCl, adjusted to pH 7.8) to give the enzyme stock solution. […] Ratio enzyme (units):peptide (μmoles) ˜1:11. […] Ratio enzyme (units):peptide (μ moles) ˜1.2:1.
Lyophilized porcine pancreatic trypsin (Sigma: T7409) was reconstituted to 200 μg/mL (˜300 units/mL) in assay buffer (50 mM Tris, 10 mM CaCl2), 150 mM NaCl, 1 mM HCl, adjusted to pH 7.8) to give the enzyme stock solution. […] 15 μL aliquots (˜15 μg initial peptide) of the peptide-enzyme mixture were periodically withdrawn (t=0, 30 mins, 1 hr, 2 hr, 4 hr, 8 hr, 24 hr) and quenched immediately by addition to an equal volume (15 μL) of 5% TFA (v/v) in 1:1 water/acetonitrile to arrest proteolytic activity. 20 μL aliquots (˜10 μg initial peptide) were analysed by LC/MS and/or analytical RP-HPLC as follows: LC/MS method: Agilent Polaris C8-A column (4.6×100 mm, 3 micron) eluted with a linear binary gradient of 10-90% MeCN (0.1% TFA v/v) in water (0.1% TFA v/v) over 30 mins at 1.5 mL min^−1 at ambient temperature with detection by both UV absorption at 210 nm and ionization using a Waters 3100 mass detector (ESI^+ mode). Peptide fragments deriving from enzymatic hydrolysis were identified by molecular weight, allowing location of the site of cleavage. Analytical RP-HPLC method: Agilent Polaris C8-A column (4.6×100 mm, 3 micron) eluted with a linear binary gradient of 10-90% MeCN (0.1% TFA v/v) in water (0.1% TFA v/v) over either 10 or 15 mins at 1.5 mL min^−1 at 40° C. with detection by UV absorption at 210 nm. Manual integration (AUC) allowed estimation of remaining intact peptide over the time course of the experiment.
Lyophilized porcine pancreatic trypsin (Sigma: T7409) was reconstituted to 200 μg/mL (˜300 units/mL) in assay buffer (50 mM Tris, 10 mM CaCl2), 150 mM NaCl, 1 mM HCl, adjusted to pH 7.8) to give the enzyme stock solution. […] 25 μL aliquots (˜17 μg initial peptide) of the peptide-enzyme mixture were periodically withdrawn (t=0, 30 mins, 1 hr, 2 hr, 4 hr, 8 hr, 24 hr) and quenched immediately by addition to an equal volume (25 μL) of 5% TFA (v/v) in 1:1 water/acetonitrile to arrest proteolytic activity. 25 μL aliquots (˜8 μg initial peptide) were analysed by LC/MS and/or analytical RP-HPLC as follows: LC/MS method: Agilent Polaris C8-A column (4.6×100 mm, 3 micron) eluted with a linear binary gradient of 10-90% MeCN (0.1% TFA v/v) in water (0.1% TFA v/v) over 30 mins at 1.5 mL min^−1 at ambient temperature with detection by both UV absorption at 210 nm and ionization using a Waters 3100 mass detector (ESI^+ mode). Peptide fragments deriving from enzymatic hydrolysis were identified by molecular weight, allowing location of the site of cleavage. Analytical RP-HPLC method: Agilent Polaris C8-A column (4.6×100 mm, 3 micron) eluted with a linear binary gradient of 10-90% MeCN (0.1% TFA v/v) in water (0.1% TFA v/v) over either 10 or 15 mins at 1.5 mL min^−1 at 40° C. with detection by UV absorption at 210 nm. Manual integration (AUC) allowed estimation of remaining intact peptide over the time course of the experiment.

[3] = target: T3, porcine pancreatic pepsin (Sus scrofa, UniProt P00791); test: Proteolytic resistance to pepsin (% remaining intact peptide, RP-HPLC AUC); assay type: in vitro ADME; details: t = 0; 37° C., pH 2.0
T3 construct: purchased Sigma P7012

[4] = Proteolytic resistance to fasted-state simulated intestinal fluid (FASSIF/Pancreatin); assay type: in vitro ADME; details: 37° C., read-out: Percentage remaining intact peptide (AUC by RP-HPLC) upon incubation with fasted-state simulated intestinal fluid (FASSIF/P)
Experimental: (§2) A fresh suspension of FASSIF/P (Fasted-State Simulated Intestinal Fluid+USP Pancreatin®) was prepared according to that described by Galia, Nicolaides, Hörter, Lobenberg, Reppas and Dressman: Pharm. Res. 15 (1998) 698-705. The resulting preparation is proteolytically equivalent to ˜375 units/mL (375 kU/L) and was used immediately without storage. Peptides for evaluation (1.0 mg, ˜250 nmoles) were initially dissolved in pre-warmed FASSIF without Pancreatin® (200 μL) to which was added pre-warmed fresh FASSIF/Pancreatin® (100 μL) to initiate potential digestion. Following momentary vortexing of the Eppendorf reaction tube the mixture was incubated at 37° C. in a thermostatic waterbath for the duration of the experiment. 25 μL aliquots of the co-incubated peptide-enzyme mixture were periodically withdrawn (t=0, 5 m, 10 m, 15 m, 30 m, 1 h, 2 h) and quenched immediately by addition to a solution of 10% TFA in 1:1 water/acetonitrile (75 μL) to arrest proteolytic activity.

[5] = tested on: FASSIF/P (Fasted-State Simulated Intestinal Fluid+USP Pancreatin®); test: as above; assay type: in vitro ADME; details: t = 0; 37° C.
Experimental: as §2

[6] = target: T4, human glucose-dependent insulinotropic peptide receptor (GIPR) (Homo sapiens, UniProt P48546); test: cAMP assay, human GIPR cells; assay type: cell-based; details: Table 9, bis-lipidated peptides
T4 construct: expressed in transfected cells; host or cells: HEK293 cells or CHO cells
T4 sequence (P48546 22-466): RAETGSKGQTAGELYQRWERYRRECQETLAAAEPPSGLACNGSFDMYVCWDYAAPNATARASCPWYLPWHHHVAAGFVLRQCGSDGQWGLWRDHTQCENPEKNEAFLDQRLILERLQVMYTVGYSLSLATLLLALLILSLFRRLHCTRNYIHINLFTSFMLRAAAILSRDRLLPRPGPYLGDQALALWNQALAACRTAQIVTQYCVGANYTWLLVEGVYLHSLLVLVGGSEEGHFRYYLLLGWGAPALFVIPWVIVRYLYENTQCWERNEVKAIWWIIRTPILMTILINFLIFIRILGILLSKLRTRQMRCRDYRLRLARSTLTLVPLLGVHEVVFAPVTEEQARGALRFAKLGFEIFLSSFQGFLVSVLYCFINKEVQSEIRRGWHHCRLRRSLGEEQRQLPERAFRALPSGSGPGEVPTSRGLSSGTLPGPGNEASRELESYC
Outline: as §1

[7] = tested on: FASSIF/Pancreatin® activated with 100 μg/mL human enterokinase; test: Proteolytic resistance to FASSIF/Pancreatin following full zymogen activation with enterokinase; assay type: in vitro ADME; details: t = 0; 37° C.
Experimental: as §2, with “Pharm. […] To the” for “Pharm. Res. 15 (1998) 698-705. The”, “preparation was added human enterokinase (100 μg/mL)” for “preparation is proteolytically equivalent”, “to ensure the potential for full zymogen activity of the mixture which” for “to ˜375 units/mL (375 kU/L) and”, “([…])” for “(100 μL)”

[8] = Proteolytic resistance to α-chymotrypsin (% remaining intact peptide, RP-HPLC AUC); details: recombinant α-chymotrypsin in assay buffer, pH 7.8
Experimental: as §3, §4, §5

[9] = tested on: recombinant α-chymotrypsin; test: as above; details: t = 0; 37° C., pH 7.8
Experimental: as §3, §4, §5

T1 sequence (P47871 26-477): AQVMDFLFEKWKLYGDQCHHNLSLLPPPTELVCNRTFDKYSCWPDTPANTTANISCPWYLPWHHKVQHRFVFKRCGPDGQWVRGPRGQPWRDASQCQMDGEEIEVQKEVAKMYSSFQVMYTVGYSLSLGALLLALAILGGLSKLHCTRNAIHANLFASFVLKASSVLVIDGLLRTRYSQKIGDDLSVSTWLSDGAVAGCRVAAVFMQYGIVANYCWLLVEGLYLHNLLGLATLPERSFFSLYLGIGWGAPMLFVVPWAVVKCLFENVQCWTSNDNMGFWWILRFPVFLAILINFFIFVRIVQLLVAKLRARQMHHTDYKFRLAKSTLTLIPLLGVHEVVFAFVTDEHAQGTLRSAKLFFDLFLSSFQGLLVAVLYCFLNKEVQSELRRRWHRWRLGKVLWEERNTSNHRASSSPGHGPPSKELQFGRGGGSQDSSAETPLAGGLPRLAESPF
Chain of porcine pancreatic trypsin (P00761 9-231): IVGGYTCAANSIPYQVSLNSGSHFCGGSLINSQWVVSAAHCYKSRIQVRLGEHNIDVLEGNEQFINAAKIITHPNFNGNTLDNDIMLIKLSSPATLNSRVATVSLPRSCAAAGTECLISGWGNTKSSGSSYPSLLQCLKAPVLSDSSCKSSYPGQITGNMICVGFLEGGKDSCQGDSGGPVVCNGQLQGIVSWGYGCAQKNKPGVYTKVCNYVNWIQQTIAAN
T2 sequence (P08473 whole entry): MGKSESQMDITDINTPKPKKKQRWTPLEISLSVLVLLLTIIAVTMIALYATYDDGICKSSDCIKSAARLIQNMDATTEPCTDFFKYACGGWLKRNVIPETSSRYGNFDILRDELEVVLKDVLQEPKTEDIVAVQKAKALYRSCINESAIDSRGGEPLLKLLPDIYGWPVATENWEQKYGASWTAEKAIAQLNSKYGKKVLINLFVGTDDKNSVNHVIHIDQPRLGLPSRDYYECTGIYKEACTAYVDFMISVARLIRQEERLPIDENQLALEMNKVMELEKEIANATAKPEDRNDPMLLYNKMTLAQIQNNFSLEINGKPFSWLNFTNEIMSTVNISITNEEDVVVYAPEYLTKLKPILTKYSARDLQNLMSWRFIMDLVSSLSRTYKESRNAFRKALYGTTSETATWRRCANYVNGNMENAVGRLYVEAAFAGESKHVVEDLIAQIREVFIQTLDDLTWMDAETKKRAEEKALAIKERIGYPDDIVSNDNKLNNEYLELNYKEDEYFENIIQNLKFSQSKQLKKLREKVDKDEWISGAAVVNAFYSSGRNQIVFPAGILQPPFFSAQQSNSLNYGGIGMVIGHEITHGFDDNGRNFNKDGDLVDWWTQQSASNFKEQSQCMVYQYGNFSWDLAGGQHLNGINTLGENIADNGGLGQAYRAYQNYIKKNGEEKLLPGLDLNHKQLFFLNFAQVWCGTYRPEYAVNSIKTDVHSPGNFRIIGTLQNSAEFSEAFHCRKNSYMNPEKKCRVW
T3 sequence (P00791 60-385): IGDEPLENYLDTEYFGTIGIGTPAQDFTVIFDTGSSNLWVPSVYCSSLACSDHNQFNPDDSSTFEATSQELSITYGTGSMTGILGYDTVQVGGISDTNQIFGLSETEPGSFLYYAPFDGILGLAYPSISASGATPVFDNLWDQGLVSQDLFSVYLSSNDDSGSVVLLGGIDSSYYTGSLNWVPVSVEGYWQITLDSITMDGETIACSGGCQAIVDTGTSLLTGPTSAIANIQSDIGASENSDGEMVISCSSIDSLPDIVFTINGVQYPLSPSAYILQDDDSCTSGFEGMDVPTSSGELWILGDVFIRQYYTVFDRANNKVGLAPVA

Row | remaining at 1 h (in vitro) | EC50 ([1]; first replicate, read-out: Primary assay EC50 Gluc-R (n1)) | EC50 ([1]; second replicate, read-out: Primary assay EC50 Gluc-R (n2)) | Percentage remaining peptide (AUC at specified time-point by RP-HPLC) upon incubation with neprilysin, t = 0 (recombinant Neprilysin) | Percentage remaining intact peptide (AUC by RP-HPLC) upon incubation with trypsin [2] | Percentage remaining intact peptide (AUC by RP-HPLC) upon incubation with pepsin [3] | remaining at 10 min, […] ([4]; t = 10 m) | remaining at 0.25 h, […] ([4]; t = 15 m) | remaining at 0.5 h, […] ([4]; t = 30 m) | remaining at 2 h, […] ([4]; t = 2 h) | Percentage remaining intact peptide (AUC by RP-HPLC) upon incubation with fasted-state simulated intestinal fluid (FASSIF/P) [5] | EC50 ([6]; first replicate, read-out: Primary assay EC50 GIP-R (n1)) | EC50 ([6]; second replicate, read-out: Primary assay EC50 GIP-R (n2)) | Percentage remaining intact peptide (AUC by RP-HPLC) upon incubation with FASSIF activated with 100 μg/mL enterokinase [7] | remaining at 0.5 h [8] | remaining at 1 h [8] | remaining at 4 h [8] | remaining at 8 h [8] | remaining at 24 h [8] | Percentage remaining intact peptide (AUC by RP-HPLC) upon incubation with α-chymotrypsin [9] | Structure (SMILES)
1 | 95.6% | – | – | – | – | – | – | – | – | – | – | – | – | – | – | – | – | – | – | – | CCCCCCCCCCCCCCCC(=O)N[C@@H](CCC(=O)NCCCC[C@H](NC(=O)[C@H](C)NC(=O)[C@H](C)NC(=O)[C@H](CCC(N)=O)NC(=O)CNC(=O)[C@H](CCC(=O)O)NC(=O)[C@H](CC(C)C)NC(=O)[C@H](Cc1ccc(O)cc1)NC(=O)[C@H](CO)NC(=O)[C@H](CO)NC(=O)[C@@H](NC(=O)[C@H](CC(=O)O)NC(=O)[C@H](CO)NC(=O)[C@@H](NC(=O)[C@H](Cc1ccccc1)NC(=O)[C@@H](NC(=O)CNC(=O)[C@H](CCC(=O)O)NC(=O)[C@H](C)NC(=O)[C@@H](N)Cc1cnc[nH]1)[C@@H](C)O)[C@@H](C)O)C(C)C)C(=O)N[C@@H](CCC(=O)O)C(=O)N[C@@H](Cc1ccccc1)C(=O)N[C@H](C(=O)N[C@@H](C)C(=O)N[C@@H](Cc1c[nH]c2ccccc12)C(=O)N[C@@H](CC(C)C)C(=O)N[C@H](C(=O)N[C@@H](CCCNC(=N)N)C(=O)NCC(=O)N[C@@H](CCCNC(=N)N)C(=O)NCC(=O)O)C(C)C)[C@@H](C)CC)C(=O)O [Liraglutide]
2 | – | ≥ 0.0215 µM | ≥ 0.0215 µM | 100% | 100.0% | 100% | 85.6% | 76.8% | 57.6% | 7.8% | 100% | ≥ 0.0215 µM | ≥ 0.0215 µM | 100% | 88.1% | 93.9% | 93.5% | 95% | 92.3% | 100% | CCCCCCCCCCCC(=O)N[C@@H](CCC(=O)NCCOCCOCC(=O)NCCOCCOCC(=O)NCCCC[C@H](NC(=O)[C@H](C)NC(=O)[C@@H](NC(=O)[C@H](Cc1ccccc1)NC(=O)[C@H](CCC(=O)O)NC(=O)[C@](C)(CCCCN)NC(=O)[C@H](C)NC(=O)[C@H](C)NC(=O)[C@H](CCC(=O)O)NC(=O)CNC(=O)[C@H](CCC(=O)O)NC(=O)[C@H](CC(C)C)NC(=O)[C@H](CCCCNC(=O)COCCOCCNC(=O)COCCOCCNC(=O)CC[C@H](NC(=O)CCCCCCCCCCC)C(=O)O)NC(=O)[C@H](CO)NC(=O)[C@](C)(CO)NC(=O)[C@@H](NC(=O)[C@H](CC(=O)O)NC(=O)[C@H](CO)NC(=O)[C@@H](NC(=O)[C@](C)(Cc1ccccc1)NC(=O)[C@H](CO)NC(=O)CNC(=O)[C@H](CCC(=O)O)NC(=O)C(C)(C)NC(=O)[C@@H](N)Cc1c[nH]cn1)[C@@H](C)O)C(C)C)[C@@H](C)CC)C(=O)N[C@H](C(=O)N[C@H](C(=O)N[C@@H](CCC(=O)O)C(=O)NCC(=O)NCC(N)=O)C(C)C)C(C)C)C(=O)O [compound 263] (H-H[Aib]EGS[αMeF]TSDV[αMeS]SK([AEEA-AEEA-γGlu-Lauroyl])LEGEAA[αMeK]EFIAK([AEEA-AEEA-γGlu-Lauroyl])VVEGG-NH2)
